The source of these data is paper PMC10566733 (PLOS ONE, 2023).

Several values for one entry are separate records, joined by “and”; a condition that tells them apart may be missing. Identical values can stand only once.

Series [1] deals with monolayer of bEnd.3 mouse brain endothelial cells. Kind of series: Permeability across a monolayer of brain endothelial cells (in vitro BBB model). It counts as in vitro ADME. Conditions: for Diffusion of FITC-TAT across bEnd.3 monolayer, FITC-TAT + TAT: FITC-TAT 10 μM coupled with non-FITC TAT 10 μM; for Diffusion of FITC-TAT across bEnd.3 monolayer, FITC-TAT + TAT / Diffusion of FITC-TAT across bEnd.3 monolayer, FITC-TAT + TATK/R>A / Diffusion of FITC-TAT across bEnd.3 monolayer / Diffusion of FITC-linked peptide across bEnd.3 monolayer: fluorescence spectrophotometry; for Diffusion of FITC-TAT across bEnd.3 monolayer, FITC-TAT + TATK/R>A: FITC-TAT 10 μM coupled with non-FITC TAT^K/R>A 10 μM; for Diffusion of FITC-TAT across bEnd.3 monolayer: bEnd.3 monolayer on Transwell, serum-free DMEM. Also on record: Diffusion of FITC-TAT across bEnd.3 monolayer / Diffusion of FITC-linked peptide across bEnd.3 monolayer / Diffusion of FITC-TAT across bEnd.3 monolayer, FITC-TAT + TAT / Diffusion of FITC-TAT across bEnd.3 monolayer, FITC-TAT + TATK/R>A: unit not given here.

For series [2] the following is noted: endothelial monolayers absent; FITC-TAT 10 μM; Fig 1A. As for the experimental part: (§1) Briefly, the cells were seeded onto 24-well culture inserts (Falcon Permeable Support for 24-well plate; cat. #353104), and one-half of the medium was replaced every other day, and the cells were cultured for 5 days prior to the performance of a permeability assay. On the day of the assay, the culture medium was replaced with serum-free DMEM with FITC-linked peptides or bovine serum albumin (Sigma).

Series [3] deals with monolayer of bEnd.3 brain endothelial cells. As to conditions: 1000 μM TAT; Fig 5A. As for the experimental part: as §1
Medium collected from cell culture in vitro (12 μl medium per culture) and tissue samples harvested from mice in vivo were denatured by boiling in lysis buffer, separated by electrophoresis, transferred onto PVDF membranes, and imaged after incubation in primary and secondary antibodies as described previously for in vitro [55] and in vivo [57] experiments. The following primary antibodies were used: anti-albumin (1:2000; GeneTex, cat. #102419, for the in vitro experiments; 1:5000; Abcam, cat. #ab106582, for the in vivo experiments) and anti-ɑ-tubulin (1:5000; GeneTex, cat. #GTX628802) antibodies, and the following secondary antibodies were used: anti-rabbit (1:5000; GeneTex, cat. #GTX213110-01), anti-mouse (1:1000; GeneTex, cat. #GTX213111-01), and anti-chicken (1:1000; Abcam, cat. #ab97135) antibodies.

Setting [4] is: diffusion time 0.1 h, individual cultures n = 3.
Where [5] appears, read: diffusion time 12 h, individual cultures n = 3.
Where [6] appears, read: diffusion time 24 h, individual cultures n = 3.

For the compound `N=C(N)NCCC[C@H](NC(=O)[C@H](CCCNC(=N)N)NC(=O)[C@H](CCCNC(=N)N)NC(=O)[C@H](CCC(N)=O)NC(=O)[C@H](CCCNC(=N)N)NC(=O)[C@H](CCCNC(=N)N)NC(=O)[C@H](CCCCN)NC(=O)[C@H](CCCCN)NC(=O)[C@H](CCCNC(=N)N)NC(=O)CNC(=O)[C@H](Cc1ccc(O)cc1)NC(=S)Nc1ccc2c(c1)C(=O)OC21c2ccc(O)cc2Oc2cc(O)ccc21)C(=O)O` [FITC-TAT], the “Diffusion of FITC-TAT from upper to lower chamber of Transwell inserts” value in series [1] (37°C, regardless of whether monolayers of brain endothelial cells were cultured on the membranes, Fig 1A and 1B) was “readily diffused across to the lower chamber”. In addition, the “Diffusion of FITC-TAT across bEnd.3 monolayer, FITC-TAT + TAT” value in series [1] (setting [4]) was 1.844 and 1.839 and 1.804; in series [1] (setting [5]), 42.0052 and 42.275 and 41.3436; in series [1] (setting [6]) it was 90.1666 and 89.6029 and 94.8903. The “Diffusion of FITC-TAT across bEnd.3 monolayer, FITC-TAT + TATK/R>A” value in series [1] (setting [4]) is 1.736 and 1.755 and 1.705; in series [1] (setting [5]) it was 41.331 and 40.0366 and 39.1388; in series [1] (setting [6]), 85.9302 and 85.5824 and 85.3453. Besides, the “Effect of the presence of non-FITC TAT or non-FITC TAT^K/R>A on permeability of the monolayer to FITC-TAT” value in series [1] (FITC-TAT 10 μM with 10 μM competitor, Fig 3D) is on record as “only marginally decreased”. For the same compound, the “Effect of NaN3 and 2-DG treatment regimens on ability of FITC-TAT to cross the monolayer” value in series [1] (FITC-TAT 10 μM, NaN3 10 mM and 2-DG 6 mM, 1 h pre-treatment or 24 h, Fig 2B) is on record as “neither treatment regimens had an effect”. In addition, the “Diffusion of FITC-TAT across bEnd.3 monolayer” value in series [1] (FITC-TAT 10 μM, 4°C, diffusion time 0 h, individual cultures n = 10) is 1.386 and 10.0745 and 1.495 and 1.465 and 7.9907 and 7.9 and 8.057 and 7.849 and 10.0907 and 10.1377; in series [1] (FITC-TAT 10 μM, 4°C, diffusion time 0.5 h, individual cultures n = 10) it was 2.727 and 10.2694 and 1.946 and 2.6148 and 12.2754 and 11.4859 and 13.8266 and 14.9326 and 10.2588 and 10.1802; in series [1] (FITC-TAT 10 μM, 4°C, diffusion time 1 h, individual cultures n = 10) it was 3.318 and 12.0592 and 3.998 and 4.153 and 14.099 and 14.1024 and 12.2279 and 14.4626 and 12.8546 and 12.5004; in series [1] (FITC-TAT 10 μM, 4°C, diffusion time 2 h, individual cultures n = 10), 4.184 and 12.4226 and 4.5396 and 5.958 and 21.4454 and 17.4004 and 16.7345 and 14.5981 and 18.4195 and 13.6876; in series [1] (FITC-TAT 10 μM, 4°C, diffusion time 4 h, individual cultures n = 10), 12.2948 and 22.4089 and 5.603 and 11.4776 and 26.9335 and 21.9034 and 18.3373 and 22.0326 and 23.9812 and 20.9146; in series [1] (FITC-TAT 10 μM, 4°C, diffusion time 8 h, individual cultures n = 10), 23.6561 and 36.4429 and 7.1971 and 15.1917 and 28.8919 and 24.9217 and 33.0378 and 37.6449 and 33.9313 and 51.5353. In addition, the “Diffusion of FITC-TAT across bEnd.3 monolayer” value is 44.603 and 38.3865 and 18.3523 and 26.8326 and 40.1964 and 39.8496 and 31.2218 and 52.2936 and 30.2304 and 54.311 in series [1] (FITC-TAT 10 μM, 4°C, diffusion time 12 h, individual cultures n = 10); 2.7408 and 2.991 and 8.292 and 8.146 and 7.613 and 9.624 and 9.686 and 9.768 in series [1] (FITC-TAT 10 μM, 37°C, diffusion time 0 h, individual cultures n = 8); 5.546 and 5.194 and 16.5195 and 13.9086 and 14.4213 and 13.3482 and 14.7024 and 14.0517 in series [1] (FITC-TAT 10 μM, 37°C, diffusion time 0.5 h, individual cultures n = 8); 8.062 and 7.828 and 16.9226 and 16.4917 and 15.6732 and 12.2867 and 19.4469 and 13.4865 in series [1] (FITC-TAT 10 μM, 37°C, diffusion time 1 h, individual cultures n = 8); 13.5165 and 10.5024 and 28.7248 and 24.7001 and 24.2495 and 24.3505 in series [1] (FITC-TAT 10 μM, 37°C, diffusion time 2 h, individual cultures n = 8). In series [1] (cells incubated with 100 μM cytochalasin D, FITC-TAT 10 μM, Fig 4D), the “FITC-TAT movement across the endothelial monolayer with cytochalasin D” value is recorded as “increased rather than inhibited”. Besides, the “Effect of lowering the temperature to 4°C on diffusion of FITC-TAT across Transwell inserts” value in series [1] (endothelial monolayers present, FITC-TAT 10 μM, Fig 1B) is reported as “substantially decreased”; in series [2], “had no effect”. Also, the “Diffusion of FITC-linked peptide across bEnd.3 monolayer” value is 16.1034 and 15.6278 and 16.2621 and 16.9227 in series [1] (peptide 1 μM (Fig 3A), diffusion time 0.1 h, individual cultures n = 4); 33.068 and 35.9601 and 44.67 and 33.2662 in series [1] (peptide 1 μM (Fig 3A), diffusion time 4 h, individual cultures n = 4); 59.5062 and 62.0797 and 69.9514 and 60.3513 in series [1] (peptide 1 μM (Fig 3A), diffusion time 12 h, individual cultures n = 4); 98.4329 and 97.1083 and 108.448 and 96.0109 in series [1] (peptide 1 μM (Fig 3A), diffusion time 24 h, individual cultures n = 4); 5.536 and 5.776 and 5.613 and 5.958 in series [1] (peptide 3 μM (Fig 3B), diffusion time 0.1 h, individual cultures n = 4); 30.6967 and 26.8471 and 24.0637 and 21.038 in series [1] (peptide 3 μM (Fig 3B), diffusion time 4 h, individual cultures n = 4). Moreover, the “Diffusion of FITC-linked peptide across bEnd.3 monolayer” value in series [1] (peptide 3 μM (Fig 3B), diffusion time 12 h, individual cultures n = 4) was 69.4896 and 55.4891 and 51.5686 and 64.8124; in series [1] (peptide 3 μM (Fig 3B), diffusion time 24 h, individual cultures n = 4), 112.045 and 93.6163 and 91.1166 and 103.222; in series [1] (peptide 10 μM (Fig 3C), diffusion time 0.1 h, individual cultures n = 4), 1.488 and 1.536 and 1.502 and 1.69; in series [1] (peptide 10 μM (Fig 3C), diffusion time 4 h, individual cultures n = 4) it was 20.2675 and 19.471 and 18.2115 and 22.8397; in series [1] (peptide 10 μM (Fig 3C), diffusion time 12 h, individual cultures n = 4), 55.3743 and 53.9149 and 46.6389 and 56.9448; in series [1] (peptide 10 μM (Fig 3C), diffusion time 24 h, individual cultures n = 4), 95.2978 and 101.031 and 98.8203 and 104.851. Besides, the “Diffusion of FITC-linked peptide across bEnd.3 monolayer” value was 1.749 and 1.772 and 1.79 in series [1] (peptide 10 μM alone (Fig 3D), diffusion time 0.1 h, individual cultures n = 3); 43.9695 and 46.4386 and 47.7244 in series [1] (peptide 10 μM alone (Fig 3D), diffusion time 12 h, individual cultures n = 3); 96.1412 and 98.5343 and 105.324 in series [1] (peptide 10 μM alone (Fig 3D), diffusion time 24 h, individual cultures n = 3).

`N=C(N)NCCC[C@H](NC(=O)[C@H](CCCNC(=N)N)NC(=O)[C@H](CCCNC(=N)N)NC(=O)[C@H](CCC(N)=O)NC(=O)[C@H](CCCNC(=N)N)NC(=O)[C@H](CCCNC(=N)N)NC(=O)[C@H](CCCCN)NC(=O)[C@H](CCCCN)NC(=O)[C@H](CCCNC(=N)N)NC(=O)CNC(=O)[C@@H](N)Cc1ccc(O)cc1)C(=O)O` [TAT]: the “Effect of TAT on the amount of albumin that crossed the monolayer” value in series [3] was “significantly increased”.
